Measurements reported in article PMC10877733, “Discovery and Characterization of VU0542270, the First Selective Inhibitor of Vascular Kir6.1/SUR2B KATP Channels” (Molecular Pharmacology, 2024).
Where two headings read alike, the source gives them in different places.

What was measured:
Kir6.1/SUR2B = biological target: T1, Kir6.1/SUR2B (Homo sapiens, UniProt O60706); assay: Thallium flux assay of Kir6.1/SUR2B in HEK293 cells; format: cell-based
T1 construct: expressed in transfected cells; also transiently transfected HEK293T
Source text: The pcDNA3.1-SUR2B plasmid was generously provided by Dr. Colin Nichols (Washington University). […] Stably transfected tetracycline-regulated expression human embryonic kidney-293 (T-Rex-HEK293) cells expressing both plasmids were generated by cotransfecting cells with Lipofectamine LTX followed by antibiotic selection and clonal selection using the thallium flux assay described below. […] The cell culture media contained Dulbecco's modified Eagle's medium (Gibco, 11965-092) supplied with heat-inactivated FBS (bio-techne, Minneapolis, MN […],10%), Blasticidine HCl (Gibco, A11139-03, 10 ug/mL), Penicillin-Streptomycin (Gibco, 15140-122, 2 mM), G418 Sulfate (CORNING, Corning, NY, 30-234-CR, 1 mg/mL), and Hygromycin B (Invitrogen, Carlsbad, CA, 10687-010, 250 ug/mL). For selectivity assays, HEK293T cells were cotransfected with Kir6.x and SURX with Lipofectamine LTX and incubated for 48 hours before thallium flux assays. […] [[…] et al., 2019]). […] Dye-loaded cells were washed with assay buffer and transferred to a Panoptic Kinetic Imaging Plate Reader (Wavefront Bioscience, Franklin, TN). Control and test compound treatments were for 4 minutes prior to adding 0.5 mM chloride-free thallium stimulus buffer (Ion Bioscience) to initiate thallium flux. […] Selectivity assays against other Kir channels were performed essentially as described previously ([[…] et al., 2018]; [[…] al., 2022]). […] Data were acquired using Panoptic Software, Waveguide (Wavefront Biosciences). Raw fluorescence values were imported for analysis into custom software (VICB, Vanderbilt University). Fluorescence versus time values for each well were normalized to the initial fluorescence value [F/F0]. […] CRC data were plotted in GraphPad Prism (GraphPad Software, San Diego, CA) and fitted with a four-parameter logistic model to determine IC50 values for rank-ordering hit potency.

[1] = Brain:plasma distribution in rat; format: in vivo; details: male, Sprague Dawley, brain and plasma, IV 0.2 mg/kg, 15 minutes postdose
Method: VU0542270 was formulated as a solution in ethanol, PEG400, and saline (1:4:5 v/v, respectively) and administered to male Sprague Dawley rats (n = 1) intravenously at 0.2 mg/kg. At 15 minutes postdose, a blood sample was collected terminally into chilled K2EDTA anticoagulant-fortified tubes and immediately placed on wet ice. The blood sample was then centrifuged (1700 rcf, 5 minutes, 4°C) to obtain a plasma sample. At the same postadministration time point(s), a whole-brain sample was obtained by rapid dissection, rinsing with PBS, and immediate freezing in individual tissue collection boxes (dry ice). All brain and plasma samples were stored at −80°C until analysis by LC-MS/MS. In vivo brain:plasma distribution partition coefficient of VU0542270 was determined from the observed animal brain versus plasma concentrations.
Plasma samples from the in-life phases of the studies were thawed at ambient temperature (benchtop), and then aliquots (20 µL per sample) were transferred to a 96-shallow-well (V-bottom) plate. […]
Prepared samples were injected (10 µL each) onto an AB Sciex triple quad-4500 mass spectrometer system with an Agilent 1290 Infinity Binary Pump and multisampler. […] Quantitation of VU0542270 was performed via AB Sciex Analyst software using the raw analyte:IS peak area ratios. […]

T1 sequence (O60706 1-1549 isoform O60706-2, species assumed): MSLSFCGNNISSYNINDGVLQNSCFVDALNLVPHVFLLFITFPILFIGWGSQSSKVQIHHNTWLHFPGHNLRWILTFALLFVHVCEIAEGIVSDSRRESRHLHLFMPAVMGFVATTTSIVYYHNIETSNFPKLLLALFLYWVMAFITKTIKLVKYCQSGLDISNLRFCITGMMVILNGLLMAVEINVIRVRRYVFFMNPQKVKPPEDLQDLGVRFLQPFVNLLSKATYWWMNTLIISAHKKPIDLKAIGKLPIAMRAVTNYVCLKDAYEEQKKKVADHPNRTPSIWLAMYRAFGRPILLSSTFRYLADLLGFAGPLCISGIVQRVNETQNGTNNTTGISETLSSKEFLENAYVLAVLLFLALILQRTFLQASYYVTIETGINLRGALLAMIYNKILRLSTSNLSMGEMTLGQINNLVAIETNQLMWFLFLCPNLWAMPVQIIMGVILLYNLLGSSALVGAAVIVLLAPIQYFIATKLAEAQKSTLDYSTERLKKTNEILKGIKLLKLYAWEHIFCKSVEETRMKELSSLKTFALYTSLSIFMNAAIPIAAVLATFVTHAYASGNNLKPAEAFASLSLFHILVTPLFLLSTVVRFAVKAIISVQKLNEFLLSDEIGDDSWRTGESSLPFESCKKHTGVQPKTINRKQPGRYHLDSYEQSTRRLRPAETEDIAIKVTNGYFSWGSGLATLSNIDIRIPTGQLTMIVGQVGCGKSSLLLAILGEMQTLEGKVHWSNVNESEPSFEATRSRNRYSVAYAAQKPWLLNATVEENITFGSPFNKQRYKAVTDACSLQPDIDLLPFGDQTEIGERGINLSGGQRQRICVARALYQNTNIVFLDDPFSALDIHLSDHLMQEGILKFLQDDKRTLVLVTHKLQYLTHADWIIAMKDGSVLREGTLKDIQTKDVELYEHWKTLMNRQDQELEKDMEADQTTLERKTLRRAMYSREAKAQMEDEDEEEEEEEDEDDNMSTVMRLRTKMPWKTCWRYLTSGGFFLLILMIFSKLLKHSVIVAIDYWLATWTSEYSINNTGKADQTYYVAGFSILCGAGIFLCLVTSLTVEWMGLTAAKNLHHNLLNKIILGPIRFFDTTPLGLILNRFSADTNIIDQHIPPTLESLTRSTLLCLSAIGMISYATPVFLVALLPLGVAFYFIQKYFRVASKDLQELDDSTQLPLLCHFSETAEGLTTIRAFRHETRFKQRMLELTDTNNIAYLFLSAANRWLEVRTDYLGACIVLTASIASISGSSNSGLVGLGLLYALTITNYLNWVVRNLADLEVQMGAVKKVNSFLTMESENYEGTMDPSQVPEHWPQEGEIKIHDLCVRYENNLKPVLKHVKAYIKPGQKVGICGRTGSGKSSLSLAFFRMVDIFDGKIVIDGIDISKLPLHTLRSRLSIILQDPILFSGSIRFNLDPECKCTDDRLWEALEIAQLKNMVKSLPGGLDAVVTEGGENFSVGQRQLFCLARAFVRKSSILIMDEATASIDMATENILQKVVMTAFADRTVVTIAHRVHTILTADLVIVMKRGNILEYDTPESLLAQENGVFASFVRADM
T1 sequence (Q15842 whole entry partner, species assumed): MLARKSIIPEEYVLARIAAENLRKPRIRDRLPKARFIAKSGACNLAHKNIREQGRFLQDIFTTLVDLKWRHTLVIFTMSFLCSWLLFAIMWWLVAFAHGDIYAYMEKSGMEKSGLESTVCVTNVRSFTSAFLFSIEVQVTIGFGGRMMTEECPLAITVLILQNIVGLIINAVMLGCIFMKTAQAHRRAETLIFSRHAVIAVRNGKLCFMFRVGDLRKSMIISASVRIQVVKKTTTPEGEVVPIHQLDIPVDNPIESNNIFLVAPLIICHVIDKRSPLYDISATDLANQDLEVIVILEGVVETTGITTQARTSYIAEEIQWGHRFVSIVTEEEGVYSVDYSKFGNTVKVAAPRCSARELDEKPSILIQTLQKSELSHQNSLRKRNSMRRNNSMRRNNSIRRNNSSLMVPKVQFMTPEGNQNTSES

In the case of `Cc1nc(-c2cccs2)sc1CNC(=O)Nc1cccs1` [VU0542270], the IC50 (Kir6.1/SUR2B; Table 1 selectivity profile, read-out: IC50 Kir6.1/SUR2B) is reported as 110 nM, the IC50 (Kir6.1/SUR2B; pinacidil-activated, read-out: Kir6.1/SUR2B IC50) is reported as 104 nM and the IC50 (Kir6.1/SUR2B; transfected HEK-293 cells, pinacidil activation, read-out: Kir6.1/SUR2B IC50 (Fig. 4C)) is reported as 129 nM. It also gave a Kp at 0.25 h [1] of 0.11.
